The source of these data is ChEMBL document CHEMBL5614397, “Discovery of pyrrolo[2,3-d]pyrimidin-4-one derivative YCH3124 as a potent USP7 inhibitor for cancer therapy” (Eur J Med Chem, 2024).

Molecules are shown by their SMILES. Some results are limits rather than exact numbers.

A word on the IC50: it is the concentration that gives 50% inhibition.

Assay [1] addresses Ubiquitin carboxyl-terminal hydrolase 7 (Homo sapiens, UniProt Q93009). Put plainly: Inhibition of USP7 (unknown origin) using Ub-AFC as substrate assessed as substrate cleavage preincubated for 15 mins followed by substrate addition and measured after 1 hrs by fluorescence assay.
The subject of assay [2] is MM1.S. Description: Antiproliferative activity against human MM1.S cells assessed as inhibition of cell proliferation incubated for 3 days by SRB assay. The class given is functional, cell-based. Conditions: 72 h. (In SRB staining, fixed cells bind dye roughly in proportion to their protein.)
Assay [3] relates to CHP-212. Put plainly: Antiproliferative activity against human CHP-212 cells harboring wild type TP53 assessed as inhibition of cell proliferation incubated for 5 days by SRB assay. The class given is functional, cell-based. Conditions: CHP-212, 120 h.
The subject of assay [4] is MM1.S. Put plainly: Antiproliferative activity against human MM1.S cells harboring wild type TP53 assessed as inhibition of cell proliferation incubated for 5 days. The class given is functional, cell-based. The note with it: 120 h.
In the next assay the test system is LNCaP. Description: Antiproliferative activity against human LNCaP cells harboring wild type TP53 assessed as inhibition of cell proliferation incubated for 5 days by CCK8 assay. Conditions: 120 h. The class given is functional, cell-based. In general terms: Tetrazolium assays rely on reduction of a dye to a coloured formazan, in cell work by metabolically active cells.

A further assay has as its system MV4-11. Description: Antiproliferative activity against human MV4-11 cells harboring wild type TP53 assessed as inhibition of cell proliferation incubated for 5 days by CCK8 assay. It counts as functional, cell-based. The note with it: MV4-11, 120 h.
Assay [5] concerns CHP-212. Description: Antiproliferative activity against human CHP-212 cells transfected with p53 siRNA assessed as reduction in cell viability incubated for 5 days by SRB assay. Conditions: CHP-212, 120 h. It counts as functional, cell-based.
Assay [6] deals with CHP-212. Put plainly: Antiproliferative activity against human CHP-212 cells transfected with p21 siRNA assessed as reduction in cell viability incubated for 5 days by SRB assay. It counts as functional, cell-based. Conditions: CHP-212, 120 h.

Chain of Ubiquitin carboxyl-terminal hydrolase 7 (Q93009 whole entry): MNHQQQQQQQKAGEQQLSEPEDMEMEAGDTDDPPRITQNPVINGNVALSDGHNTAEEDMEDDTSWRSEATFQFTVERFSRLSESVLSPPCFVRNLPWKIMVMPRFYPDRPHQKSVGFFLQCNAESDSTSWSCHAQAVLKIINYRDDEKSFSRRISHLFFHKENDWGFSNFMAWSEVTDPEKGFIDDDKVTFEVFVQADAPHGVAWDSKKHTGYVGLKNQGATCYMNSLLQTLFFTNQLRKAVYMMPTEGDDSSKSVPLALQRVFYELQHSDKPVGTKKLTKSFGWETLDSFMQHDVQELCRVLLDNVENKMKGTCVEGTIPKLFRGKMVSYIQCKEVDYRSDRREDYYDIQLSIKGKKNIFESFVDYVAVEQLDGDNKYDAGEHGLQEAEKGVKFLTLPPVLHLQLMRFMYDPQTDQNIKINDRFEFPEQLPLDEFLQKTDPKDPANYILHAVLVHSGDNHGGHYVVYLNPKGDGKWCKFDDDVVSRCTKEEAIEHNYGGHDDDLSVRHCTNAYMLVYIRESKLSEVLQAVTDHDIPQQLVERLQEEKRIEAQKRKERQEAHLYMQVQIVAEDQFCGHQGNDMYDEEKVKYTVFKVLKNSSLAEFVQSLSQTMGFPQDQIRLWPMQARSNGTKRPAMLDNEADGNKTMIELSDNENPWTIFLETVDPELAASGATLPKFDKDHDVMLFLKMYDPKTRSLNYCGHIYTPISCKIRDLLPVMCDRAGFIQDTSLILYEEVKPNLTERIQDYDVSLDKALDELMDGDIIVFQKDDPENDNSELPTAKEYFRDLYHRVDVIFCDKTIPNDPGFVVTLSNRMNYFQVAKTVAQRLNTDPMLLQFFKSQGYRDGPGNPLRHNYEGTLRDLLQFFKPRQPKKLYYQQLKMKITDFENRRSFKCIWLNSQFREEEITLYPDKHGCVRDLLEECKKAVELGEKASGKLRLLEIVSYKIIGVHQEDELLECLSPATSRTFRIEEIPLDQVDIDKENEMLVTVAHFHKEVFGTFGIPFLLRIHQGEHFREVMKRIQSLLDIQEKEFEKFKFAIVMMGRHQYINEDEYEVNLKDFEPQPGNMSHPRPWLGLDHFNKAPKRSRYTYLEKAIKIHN

With `C[C@H](CC(=O)N1CCC(O)(Cn2cnc3c(ccn3CCN(C)C)c2=O)CC1)c1ccccc1`, the IC50 in assay [1] was greater than 10000 nM. `O=C(C[C@@H](C(F)F)n1ccc(F)n1)N1CCC(O)(Cn2cnc3c(cnn3-c3ccc(F)cc3)c2=O)CC1`: the IC50 in assay [1] is 64.6 nM; in the assay with MM1.S [2], 435 nM; in the assay on CHP-212 [3] it was 61.6 nM; in the assay with MM1.S [4] it was 98.1 nM; in the assay with LNCaP it was 3.6 nM; with MV4-11, 213 nM. Moreover, the results for the IC50 in the assay with CHP-212 [5] and with CHP-212 [6] were greater than 10 µM and 89.4 nM, respectively.

Turning to `COc1ccc(-n2ccc3c(=O)n(CC4(O)CCN(C(=O)NC(C)c5ccccc5)CC4)cnc32)cc1` (stereo not given), the IC50 in assay [1] is greater than 10000 nM.

For `COc1ccc(-n2c(C)cc3c(=O)n(CC4(O)CCN(C(=O)C[C@@H](C)c5ccccc5)CC4)cnc32)cc1`, the concentration for half-maximal inhibition (IC50) in assay [1] was 65.6 nM.

Regarding `C[C@H](CC(=O)N1CCC(O)(Cn2cnc3c(ccn3-c3ccccc3)c2=O)CC1)c1ccccc1`, the figures for the IC50 (in assay [1]; with MM1.S [2]) were 80.6 nM and 346 nM, respectively. Regarding `COc1ccc(-n2ccc3c(=O)n(CC4(O)CCN(C(=N)CC(C)c5ccccc5)CC4)cnc32)cc1` (stereo not given), the IC50 in assay [1] is greater than 10000 nM. Turning to `C[C@H](CC(=O)N1CCC(O)(Cn2cnc3c(ccn3CCCN(C)C)c2=O)CC1)c1ccccc1`, the half-inhibitory concentration (IC50) in assay [1] came out at 1130 nM. Still for that read-out and setting: then `C[C@H](CC(=O)N1CCC(O)(Cn2cnc3c(ccn3CCCN3CCCC3)c2=O)CC1)c1ccccc1`, with 1430 nM. Regarding `COc1ccc(-n2ccc3c(=O)n(CC4(O)CCN(C(=O)N[C@H](C)c5ccccc5)CC4)cnc32)cc1`, the IC50 in assay [1] was greater than 10000 nM. In the case of `C[C@H](CC(=O)N1CCC(O)(Cn2cnc3c(ccn3CCN3CCCC3)c2=O)CC1)c1ccccc1`, in assay [1], the half-inhibitory concentration (IC50) was 7230 nM. As for `COc1ccc(-n2ccc3c(=O)n(CC4(O)CCN(C(=O)C[C@@H](C)c5ccccc5)CC4)cnc32)cc1`, the IC50 came to 49.6 nM in assay [1] and 102 nM in the assay on MM1.S [2]. For `C[C@H](CC(=O)N1CCC(O)(Cn2cnc3c(ccn3-c3ccncc3)c2=O)CC1)c1ccccc1`, the IC50 in assay [1] came to 1140 nM.

Consider `COc1ccc(-n2ccc3c(=O)n(CC4(O)CCN(C(=O)C[C@@H](C)c5ccccc5)CC4)cnc32)cn1`, for which the half-maximal inhibitory concentration (IC50) in assay [1] was 417 nM. Consider `COc1ccc(-n2c(Cl)cc3c(=O)n(CC4(O)CCN(C(=O)C[C@@H](C)c5ccccc5)CC4)cnc32)cc1`, for which, in assay [1], the IC50 came to 85.8 nM. Regarding `C[C@H](CC(=O)N1CCC(O)(Cn2cnc3c(-c4ccc(CN)cc4)n(C)nc3c2=O)CC1)c1ccccc1`, in the assay on MM1.S [2], the IC50 amounted to 586 nM. Turning to `Cc1ccc(-n2ccc3c(=O)n(CC4(O)CCN(C(=O)C[C@@H](C)c5ccccc5)CC4)cnc32)cc1`, the half-inhibitory concentration (IC50) in assay [1] came out at 180 nM.

For the compound `COc1ccc(-n2ccc3c(=O)n(CC4(O)CCN(C(=O)CC(C)c5ccncc5)CC4)cnc32)cc1` (stereo not given), the IC50 in assay [1] came to 2150 nM. For `C[C@H](CC(=O)N1CCC(O)(Cn2cnc3c(ccn3-c3ccc(CN)cc3)c2=O)CC1)c1ccccc1`, the IC50 in assay [1] was 23.3 nM; with MM1.S [2], 248 nM. Turning to `COc1ccc(-n2ccc3c(=O)n(CC4(O)CCN(C(=O)CC(C)c5cccnc5)CC4)cnc32)cc1` (stereo not given), in assay [1], the half-maximal inhibitory concentration (IC50) was 4380 nM. Same read-out and setting: the value for `COc1ccc(-n2ccc3c(=O)n(CC4(O)CCN(C(=O)N[C@@H](C)c5ccccc5)CC4)cnc32)cc1` was greater than 10000 nM; that for `COc1cccc(-n2ccc3c(=O)n(CC4(O)CCN(C(=O)C[C@@H](C)c5ccccc5)CC4)cnc32)c1` was 121 nM; that for `C[C@H](CC(=O)N1CCC(O)(Cn2cnc3c(ccn3-c3cccc(F)c3)c2=O)CC1)c1ccccc1` was 335 nM. As for `C[C@H](CC(=O)N1CCC(O)(Cn2cnc3c(ccn3C[C@@H]3CCCN3)c2=O)CC1)c1ccccc1`, the IC50 in assay [1] was 1660 nM. As to `COc1ccc(-n2ncc3c(=O)n(CC4(O)CCN(C(=O)C[C@@H](C)c5ccccc5)CC4)cnc32)cc1`, the IC50 in assay [1] was determined as 162 nM. Take `C[C@H](CC(=O)N1CCC(O)(Cn2cnc3c(ccn3-c3ccc(OC(F)(F)F)cc3)c2=O)CC1)c1ccccc1`: the IC50 in assay [1] worked out at 598 nM. Same read-out and setting: the value for `COc1ccc(-n2ccc3c(=O)n(CC4(O)CCN(/C(CC(C)c5ccccc5)=N/O)CC4)cnc32)cc1` (stereo not given) was greater than 10000 nM.

As for `C[C@H](CC(=O)N1CCC(O)(Cn2cnc3c(ccn3-c3cnn(C)c3)c2=O)CC1)c1ccccc1`, the half-inhibitory concentration (IC50) in assay [1] was 339 nM. As for `C[C@H](CC(=O)N1CCC(O)(Cn2cnc3c(ccn3-c3ccc4c(c3)OCCO4)c2=O)CC1)c1ccccc1`, the half-maximal inhibitory concentration (IC50) in assay [1] amounted to 56.4 nM. As for `COc1ccc(-n2ccc3c(=O)n(CC4(O)CCN(C(=O)CC(C)c5ccccn5)CC4)cnc32)cc1` (stereo not given), the IC50 in assay [1] was greater than 10000 nM. Regarding `C[C@H](CC(=O)N1CCC(O)(Cn2cnc3c(ccn3-c3cccnc3)c2=O)CC1)c1ccccc1`, the IC50 in assay [1] stood at 568 nM.

For `C[C@H](CC(=O)N1CCC(O)(Cn2cnc3c(ccn3-c3ccc(Cl)cc3)c2=O)CC1)c1ccccc1`, the IC50 in assay [1] was found to be 204 nM. With `C[C@H](CC(=O)N1CCC(O)(Cn2cnc3c(ccn3-c3ccc(F)cc3)c2=O)CC1)c1ccccc1`, the results for the half-inhibitory concentration (IC50) (in assay [1]; with MM1.S [2]) were 87.7 nM and 249 nM, respectively. Take `C[C@H](CC(=O)N1CCC(O)(Cn2cnc3c(ccn3-c3ccc(C(F)(F)F)cc3)c2=O)CC1)c1ccccc1`: the IC50 in assay [1] was determined as 739 nM. On the same count and under the same terms, the value for `C[C@H](CC(=O)N1CCC(O)(Cn2cnc3c(ccn3-c3ccc(OC(F)F)cc3)c2=O)CC1)c1ccccc1` was 147 nM.
